Experimental data taken from US20200288711A1, “Pyrimidin-4-Carbamate or Urea Derivatives As Herbicides” (Syngenta Participations AG, priority 2017, published 2020).

Key:
Assay type in all cases: in vivo
[1] = tested on: Abutilon theophrasti (ABUTH); experiment: B2 post-emergence herbicidal activity; conditions: Test 2a, rate 1000 g/ha, evaluated after 13 days, score 0-5 (5=total damage, 0=no damage)
Experimental: (§1) Seeds of a variety of test species were sown in standard soil in pots: Triticum aestivium (TRZAW), Avena fatua (AVEFA), Alopecurus myosuroides (ALOMY), Echinochloa crus-galli (ECHCG), Lolium perenne (LOLPE), Zea mays (ZEAMX), Abutilon theophrasti (ABUTH), Amaranthus retroflexus (AMARE) and Setaria faberi (SETFA). After 8 days cultivation (post-emergence) under controlled conditions in a glasshouse (at 24/16° C., day/night; 14 hours light; 65% humidity), the plants were sprayed with an aqueous spray solution derived from the formulation of the technical active ingredient in acetone/water (50:50) solution containing 0.5% Tween 20 (polyoxyethelyene sorbitan monolaurate, CAS RN 9005-64-5). The test plants were then grown in a glasshouse under controlled conditions (at 24/16° C., day/night; 14 hours light; 65% humidity) and watered twice daily. After 13 days, the test was evaluated (5=total damage to plant; 0=no damage to plant).

[2] = tested on: Amaranthus retroflexus (AMARE); experiment: B1 pre-emergence herbicidal activity; design: key: 5=total damage to plant; 0=no damage to plant; conditions: Test 1a, rate 1000 g/ha, evaluated after 13 days, score 0-5 (5=total damage, 0=no damage)
Experimental: as §1, with “After” for “After 8 days”, “for one day (pre-emergence)” for “(post-emergence)”

[3] = tested on: Zea mays (ZEAMX); experiment: B1 pre-emergence herbicidal activity; design: key: 5=total damage to plant; 0=no damage to plant; conditions: Test 1a, rate 1000 g/ha, evaluated after 13 days, score 0-5 (5=total damage, 0=no damage)
Experimental: as §1, with “After” for “After 8 days”, “for one day (pre-emergence)” for “(post-emergence)”

[4] = tested on: Lolium perenne (LOLPE); experiment: B1 pre-emergence herbicidal activity; design: key: 5=total damage to plant; 0=no damage to plant; conditions: Test 1a, rate 1000 g/ha, evaluated after 13 days, score 0-5 (5=total damage, 0=no damage)
Experimental: as §1, with “After” for “After 8 days”, “for one day (pre-emergence)” for “(post-emergence)”

[5] = tested on: Abutilon theophrasti (ABUTH); experiment: B1 pre-emergence herbicidal activity; design: key: 5=total damage to plant; 0=no damage to plant; conditions: Test 1a, rate 1000 g/ha, evaluated after 13 days, score 0-5 (5=total damage, 0=no damage)
Experimental: as §1, with “After” for “After 8 days”, “for one day (pre-emergence)” for “(post-emergence)”

[6] = tested on: Setaria faberi (SETFA); experiment: B1 pre-emergence herbicidal activity; conditions: Test 1a, rate 1000 g/ha, evaluated after 13 days, score 0-5 (5=total damage, 0=no damage)
Experimental: as §1, with “After” for “After 8 days”, “for one day (pre-emergence)” for “(post-emergence)”

[7] = tested on: Echinochloa crus-galli (ECHCG); experiment: B1 pre-emergence herbicidal activity; conditions: Test 1a, rate 1000 g/ha, evaluated after 13 days, score 0-5 (5=total damage, 0=no damage)
Experimental: as §1, with “After” for “After 8 days”, “for one day (pre-emergence)” for “(post-emergence)”

[8] = tested on: Setaria faberi (SETFA); experiment: B2 post-emergence herbicidal activity; design: key: 5=total damage to plant; 0=no damage to plant; conditions: Test 2a, rate 1000 g/ha, evaluated after 13 days, score 0-5 (5=total damage, 0=no damage)
Experimental: as §1

[9] = tested on: Amaranthus retroflexus (AMARE); experiment: B2 post-emergence herbicidal activity; design: key: 5=total damage to plant; 0=no damage to plant; conditions: Test 2a, rate 1000 g/ha, evaluated after 13 days, score 0-5 (5=total damage, 0=no damage)
Experimental: as §1

[10] = tested on: Echinochloa crus-galli (ECHCG); experiment: B2 post-emergence herbicidal activity; design: key: 5=total damage to plant; 0=no damage to plant; conditions: Test 2a, rate 1000 g/ha, evaluated after 13 days, score 0-5 (5=total damage, 0=no damage)
Experimental: as §1

[11] = tested on: Zea mays (ZEAMX); experiment: B2 post-emergence herbicidal activity; design: key: 5=total damage to plant; 0=no damage to plant; conditions: Test 2a, rate 1000 g/ha, evaluated after 13 days, score 0-5 (5=total damage, 0=no damage)
Experimental: as §1

[12] = tested on: Lolium perenne (LOLPE); experiment: B2 post-emergence herbicidal activity; design: key: 5=total damage to plant; 0=no damage to plant; conditions: Test 2a, rate 1000 g/ha, evaluated after 13 days, score 0-5 (5=total damage, 0=no damage)
Experimental: as §1

With `Cc1nc(-c2cncc(F)c2)ncc1N(C)C(=O)OC(C)(C)C` [Compound E2, tert-butyl N-[2-(5-fluoro-3-pyridyl)-4-methyl-pyrimidin-5-yl]-N-methyl-carbamate] the “Control of weed species after post-emergence application, ABUTH” value [1] was 1, the “Control of weed species after pre-emergence application, AMARE” value [2] was 0 and the “Control of weed species after pre-emergence application, ZEAMX” value [3] was 4. For the same molecule, the “Control of weed species after pre-emergence application, LOLPE” value [4] was 0, the “Control of weed species after pre-emergence application, ABUTH” value [5] was 0 and the “Control of weed species after pre-emergence application, SETFA” value [6] was 4. The “Control of weed species after pre-emergence application, ECHCG” value [7] was 2, the “Control of weed species after post-emergence application, SETFA” value [8] was 5 and the “Control of weed species after post-emergence application, AMARE” value [9] was 0. The “Control of weed species after post-emergence application, ECHCG” value [10] was 5, the “Control of weed species after post-emergence application, ZEAMX” value [11] was 5 and the “Control of weed species after post-emergence application, LOLPE” value [12] was 2.
